The values that follow come from ChEMBL document CHEMBL4387728, “Synthetic glycopeptides reveal specific binding pattern and conformational change at O-mannosylated position of α-dystroglycan by POMGnT1 catalyzed GlcNAc modification” (Bioorg Med Chem, 2019).

Calls of active or inactive are those of the source. The rule behind the calls is not given here. Peptide text beside a SMILES is read from it. * marks the point of attachment. X2 = CC(=O)N[C@H]1[C@H](O[C@H]2[C@@H](O)[C@H](O)[C@@H](CO)O[C@@H]2*)O[C@H](CO)[C@@H](O[C@@H]2O[C@H](CO)[C@H](O)[C@H](O)[C@H]2O)[C@@H]1O; GlcNAc(β1-2)αMan = CC(=O)N[C@H]1[C@H](O[C@H]2[C@@H](O)[C@H](O)[C@@H](CO)O[C@@H]2*)O[C@H](CO)[C@@H](O)[C@@H]1O; Hexanoyl(5-oxo) = CC(=O)CCCC(=O)*

The test system of one test is Datura stramonium. The test can be described thus: Binding affinity to biotin-labeled Datura stramonium agglutinin in pH 7.4 Tris buffer by fluorescence microarray method.
The species entered for test [1] is Homo sapiens. The test can be described thus: Binding affinity to biotin-labeled human recombinant laminin-2 at 10 ug/ml in 5.6 MES buffer by fluorescence microarray method.
In test [2] the test system is Sambucus racemosa subsp. sieboldiana. The test can be described thus: Binding affinity to biotin-labeled Sambucus sieboldiana agglutinin in pH 7.4 Tris buffer by fluorescence microarray method.
The target of test [3] is Lactotransferrin (Homo sapiens) (UniProt P02788). Nature of the test: Binding affinity to biotin-labeled lactoferrin (unknown origin) at 10 ug/ml in pH 7.4 Tris buffer by fluorescence microarray method.
Lactotransferrin (Homo sapiens), sequence (P02788 whole entry): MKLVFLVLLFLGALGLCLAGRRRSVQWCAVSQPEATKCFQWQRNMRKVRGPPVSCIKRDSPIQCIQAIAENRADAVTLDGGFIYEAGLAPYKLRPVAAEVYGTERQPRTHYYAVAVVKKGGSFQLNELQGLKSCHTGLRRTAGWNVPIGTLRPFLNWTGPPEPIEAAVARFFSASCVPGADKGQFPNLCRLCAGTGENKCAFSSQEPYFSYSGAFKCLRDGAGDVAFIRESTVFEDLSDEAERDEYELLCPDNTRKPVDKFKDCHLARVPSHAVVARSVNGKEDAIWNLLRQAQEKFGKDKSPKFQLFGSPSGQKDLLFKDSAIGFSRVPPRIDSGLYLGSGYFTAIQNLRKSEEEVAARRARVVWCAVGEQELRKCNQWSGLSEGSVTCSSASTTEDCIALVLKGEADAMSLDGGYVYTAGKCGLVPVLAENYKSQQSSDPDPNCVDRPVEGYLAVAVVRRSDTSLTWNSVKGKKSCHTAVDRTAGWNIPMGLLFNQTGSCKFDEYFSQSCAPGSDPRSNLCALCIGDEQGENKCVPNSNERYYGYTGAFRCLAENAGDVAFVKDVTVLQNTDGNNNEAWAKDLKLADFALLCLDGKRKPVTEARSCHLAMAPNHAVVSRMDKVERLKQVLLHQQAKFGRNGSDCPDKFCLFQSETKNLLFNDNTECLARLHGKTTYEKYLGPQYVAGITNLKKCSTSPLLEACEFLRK
Test [4] concerns the target Laminin subunit alpha-1 (Homo sapiens) (UniProt P25391). Nature of the test: Binding affinity to biotin-labeled human recombinant laminin-1 at 10 ug/ml in pH 5.6 MES buffer by fluorescence microarray method.
Test [5] is filed under the species Homo sapiens. Nature of the test: Binding affinity to biotin-labeled human recombinant laminin-2 at 10 ug/ml in pH 7.4 Tris buffer by fluorescence microarray method.
A further test concerns Canavalia ensiformis. The test can be described thus: Binding affinity to biotin-labeled Canavalia ensiformis agglutinin in pH 7.4 Tris buffer by fluorescence microarray method.
Another test deals with Maackia amurensis. The test can be described thus: Binding affinity to biotin-labeled Maackia amurensis agglutinin in pH 7.4 Tris buffer by fluorescence microarray method.
In a further test the test system is Arachis hypogaea. Nature of the test: Binding affinity to biotin-labeled Arachis hypogaea agglutinin in pH 7.4 Tris buffer by fluorescence microarray method.
Another test deals with Erythrina crista-galli. Nature of the test: Binding affinity to biotin-labeled Erythrina crista-galli agglutinin in pH 7.4 Tris buffer by fluorescence microarray method.
The target in test [6] is Lactotransferrin (Homo sapiens) (UniProt P02788). Nature of the test: Binding affinity to biotin-labeled lactoferrin (unknown origin) at 10 ug/ml in pH 5.6 MES buffer by fluorescence microarray method.
The nature of test [7]: Binding affinity to biotin-labeled Agaricus bisporus agglutinin in pH 7.4 Tris buffer by fluorescence microarray method.
Another test concerns Triticum aestivum. The test can be described thus: Binding affinity to biotin-labeled Wheat germ agglutinin in pH 7.4 Tris buffer by fluorescence microarray method.
In test [8] the target is Laminin subunit alpha-1 (Homo sapiens) (UniProt P25391). The test can be described thus: Binding affinity to biotin-labeled human recombinant laminin-1 at 10 ug/ml in pH 7.4 Tris buffer by fluorescence microarray method.
Laminin subunit alpha-1 (Homo sapiens), sequence (P25391 whole entry): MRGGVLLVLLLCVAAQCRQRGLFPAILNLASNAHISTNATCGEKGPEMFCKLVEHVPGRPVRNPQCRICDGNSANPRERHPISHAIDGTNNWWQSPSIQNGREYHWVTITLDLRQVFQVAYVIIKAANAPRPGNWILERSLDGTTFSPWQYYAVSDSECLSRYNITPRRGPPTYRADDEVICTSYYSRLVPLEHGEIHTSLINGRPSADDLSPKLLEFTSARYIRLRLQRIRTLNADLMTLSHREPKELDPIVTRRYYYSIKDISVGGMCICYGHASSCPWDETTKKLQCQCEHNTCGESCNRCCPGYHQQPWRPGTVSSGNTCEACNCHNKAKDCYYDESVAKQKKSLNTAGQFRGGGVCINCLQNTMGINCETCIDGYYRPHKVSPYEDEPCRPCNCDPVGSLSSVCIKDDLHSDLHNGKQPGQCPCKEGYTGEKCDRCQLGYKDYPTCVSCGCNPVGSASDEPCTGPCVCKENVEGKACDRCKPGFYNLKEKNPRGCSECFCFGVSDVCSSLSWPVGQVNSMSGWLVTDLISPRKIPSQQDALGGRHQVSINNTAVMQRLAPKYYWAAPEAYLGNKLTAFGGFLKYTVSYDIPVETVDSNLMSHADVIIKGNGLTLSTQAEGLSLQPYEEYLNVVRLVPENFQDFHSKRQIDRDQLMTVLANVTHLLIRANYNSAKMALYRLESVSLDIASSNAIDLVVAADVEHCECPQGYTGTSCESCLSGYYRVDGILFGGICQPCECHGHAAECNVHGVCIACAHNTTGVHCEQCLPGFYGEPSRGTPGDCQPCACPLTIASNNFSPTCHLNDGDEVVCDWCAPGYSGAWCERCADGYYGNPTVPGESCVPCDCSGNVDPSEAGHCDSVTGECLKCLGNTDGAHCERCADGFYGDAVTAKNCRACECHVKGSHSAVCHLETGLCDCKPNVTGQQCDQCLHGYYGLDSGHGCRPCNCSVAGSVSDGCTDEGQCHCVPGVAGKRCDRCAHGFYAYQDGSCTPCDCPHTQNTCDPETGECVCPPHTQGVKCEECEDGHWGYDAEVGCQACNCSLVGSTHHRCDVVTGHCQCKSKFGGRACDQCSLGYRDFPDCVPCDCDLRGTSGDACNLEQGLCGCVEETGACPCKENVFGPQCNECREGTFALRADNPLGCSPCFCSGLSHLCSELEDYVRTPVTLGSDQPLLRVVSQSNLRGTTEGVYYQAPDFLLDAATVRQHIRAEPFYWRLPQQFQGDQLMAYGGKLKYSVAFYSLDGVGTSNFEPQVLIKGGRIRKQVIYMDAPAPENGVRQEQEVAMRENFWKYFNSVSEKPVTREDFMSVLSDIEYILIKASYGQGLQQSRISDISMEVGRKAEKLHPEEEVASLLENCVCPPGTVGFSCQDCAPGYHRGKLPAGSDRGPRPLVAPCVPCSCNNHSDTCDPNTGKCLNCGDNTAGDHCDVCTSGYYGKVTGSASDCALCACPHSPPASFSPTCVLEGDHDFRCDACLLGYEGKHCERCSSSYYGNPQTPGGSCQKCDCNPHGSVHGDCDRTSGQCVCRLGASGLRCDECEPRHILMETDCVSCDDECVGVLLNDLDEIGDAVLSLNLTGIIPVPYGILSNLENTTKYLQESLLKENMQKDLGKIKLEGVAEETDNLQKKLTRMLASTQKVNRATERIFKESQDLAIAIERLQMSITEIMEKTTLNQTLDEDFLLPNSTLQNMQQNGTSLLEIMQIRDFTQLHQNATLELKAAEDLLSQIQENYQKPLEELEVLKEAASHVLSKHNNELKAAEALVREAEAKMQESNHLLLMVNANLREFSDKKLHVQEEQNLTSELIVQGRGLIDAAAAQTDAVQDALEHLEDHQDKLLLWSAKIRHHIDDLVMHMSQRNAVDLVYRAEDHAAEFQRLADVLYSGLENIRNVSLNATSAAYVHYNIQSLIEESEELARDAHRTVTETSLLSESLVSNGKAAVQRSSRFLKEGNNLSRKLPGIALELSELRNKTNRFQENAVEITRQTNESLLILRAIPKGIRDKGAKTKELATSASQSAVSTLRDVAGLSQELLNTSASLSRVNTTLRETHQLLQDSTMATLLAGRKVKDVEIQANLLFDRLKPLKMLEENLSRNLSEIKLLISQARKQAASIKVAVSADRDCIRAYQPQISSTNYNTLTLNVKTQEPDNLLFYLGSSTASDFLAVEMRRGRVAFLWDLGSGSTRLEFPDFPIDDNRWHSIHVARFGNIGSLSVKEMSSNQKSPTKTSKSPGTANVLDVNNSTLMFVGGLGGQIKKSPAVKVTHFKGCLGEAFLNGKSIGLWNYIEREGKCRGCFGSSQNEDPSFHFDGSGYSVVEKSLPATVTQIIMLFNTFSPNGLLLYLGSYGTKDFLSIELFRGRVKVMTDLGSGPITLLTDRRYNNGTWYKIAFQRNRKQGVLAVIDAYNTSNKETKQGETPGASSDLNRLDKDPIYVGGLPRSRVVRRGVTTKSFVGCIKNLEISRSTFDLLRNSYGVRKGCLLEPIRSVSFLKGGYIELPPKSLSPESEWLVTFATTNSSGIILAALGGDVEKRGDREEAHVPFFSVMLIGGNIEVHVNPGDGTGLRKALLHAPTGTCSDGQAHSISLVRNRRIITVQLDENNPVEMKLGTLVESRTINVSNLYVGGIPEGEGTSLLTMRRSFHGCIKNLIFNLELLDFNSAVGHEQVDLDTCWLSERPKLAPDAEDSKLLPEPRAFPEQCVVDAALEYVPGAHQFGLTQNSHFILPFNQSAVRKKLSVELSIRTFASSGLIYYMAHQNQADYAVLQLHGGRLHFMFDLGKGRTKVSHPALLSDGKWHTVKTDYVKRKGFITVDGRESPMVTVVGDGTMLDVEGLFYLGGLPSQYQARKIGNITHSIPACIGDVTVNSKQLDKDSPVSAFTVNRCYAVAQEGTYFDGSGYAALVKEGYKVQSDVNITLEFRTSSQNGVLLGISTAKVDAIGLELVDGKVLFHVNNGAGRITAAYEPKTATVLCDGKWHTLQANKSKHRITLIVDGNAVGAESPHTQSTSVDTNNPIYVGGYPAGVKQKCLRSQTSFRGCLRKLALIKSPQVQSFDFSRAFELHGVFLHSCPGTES

In the case of `CC[C@H](C)[C@H](NC(=O)[C@H](C)NC(=O)CNC(=O)[C@H](CCCNC(=N)N)NC(=O)[C@@H](NC(=O)CCCC(C)=O)[C@@H](C)O)C(=O)N[C@H](C(=O)N[C@@H](CCC(N)=O)C(=O)N[C@H](C(=O)N1CCC[C@H]1C(=O)N[C@H](C(=O)N[C@@H](CC(C)C)C(=O)NCC(=O)N1CCC[C@H]1C(=O)N[C@H](C(=O)N[C@@H](CCC(N)=O)C(=O)N1CCC[C@H]1C(=O)N[C@H](C(=O)N[C@@H](CCCNC(=N)N)C(=O)N[C@H](C(N)=O)C(C)C)[C@@H](C)O[C@H]1O[C@H](CO)[C@@H](O)[C@H](O)[C@@H]1O[C@@H]1O[C@H](CO)[C@@H](O[C@@H]2O[C@H](CO)[C@H](O)[C@H](O)[C@H]2O)[C@H](O)[C@H]1NC(C)=O)[C@@H](C)CC)[C@@H](C)O)[C@@H](C)O[C@H]1O[C@H](CO)[C@@H](O)[C@H](O)[C@@H]1O[C@@H]1O[C@H](CO)[C@@H](O[C@@H]2O[C@H](CO)[C@H](O)[C@H](O)[C@H]2O)[C@H](O)[C@H]1NC(C)=O)[C@@H](C)CC` ({Hexanoyl(5-oxo)}-TRGAIIQT(X2)PTLGPIQPT(X2)RV-NH2), the outcome (in the test on Datura stramonium; in [3]; in the test listed under Homo sapiens [5]; in the test with Maackia amurensis) was inactive. Further, the result (in the test listed under Homo sapiens [1]; in test [2]; in [4]; with Canavalia ensiformis; in the test on Arachis hypogaea; in the test on Erythrina crista-galli) was Active. Moreover, the outcome (in test [6]; in test [7]; with Triticum aestivum; in [8]) was Active.

Consider `CC[C@H](C)[C@H](NC(=O)[C@H](C)NC(=O)CNC(=O)[C@H](CCCNC(=N)N)NC(=O)[C@@H](NC(=O)CCCC(C)=O)[C@@H](C)O)C(=O)N[C@H](C(=O)N[C@@H](CCC(N)=O)C(=O)N[C@H](C(=O)N1CCC[C@H]1C(=O)N[C@H](C(=O)N[C@@H](CC(C)C)C(=O)NCC(=O)N1CCC[C@H]1C(=O)N[C@H](C(=O)N[C@@H](CCC(N)=O)C(=O)N1CCC[C@H]1C(=O)N[C@H](C(=O)N[C@@H](CCCNC(=N)N)C(=O)N[C@H](C(N)=O)C(C)C)[C@@H](C)O)[C@@H](C)CC)[C@@H](C)O)[C@@H](C)O[C@H]1O[C@H](CO)[C@@H](O)[C@H](O)[C@@H]1O[C@@H]1O[C@H](CO)[C@@H](O[C@@H]2O[C@H](CO)[C@H](O)[C@H](O)[C@H]2O)[C@H](O)[C@H]1NC(C)=O)[C@@H](C)CC` ({Hexanoyl(5-oxo)}-TRGAIIQT(X2)PTLGPIQPTRV-NH2), for which the outcome (in the test on Datura stramonium; in test [3]; in the test filed under Homo sapiens [5]; in the test with Maackia amurensis) was inactive. The result (in the test listed under Homo sapiens [1]; in [2]; in [4]; with Canavalia ensiformis; in the test with Arachis hypogaea; in the test on Erythrina crista-galli) was Active. Moreover, the result (in [6]; in test [7]; in the test with Triticum aestivum; in test [8]) was Active.

In the case of `CC[C@H](C)[C@H](NC(=O)[C@H](C)NC(=O)CNC(=O)[C@H](CCCNC(=N)N)NC(=O)[C@@H](NC(=O)CCCC(C)=O)[C@@H](C)O)C(=O)N[C@H](C(=O)N[C@@H](CCC(N)=O)C(=O)N[C@H](C(=O)N1CCC[C@H]1C(=O)N[C@H](C(=O)N[C@@H](CC(C)C)C(=O)NCC(=O)N1CCC[C@H]1C(=O)N[C@H](C(=O)N[C@@H](CCC(N)=O)C(=O)N1CCC[C@H]1C(=O)N[C@H](C(=O)N[C@@H](CCCNC(=N)N)C(=O)N[C@H](C(N)=O)C(C)C)[C@@H](C)O[C@H]1O[C@H](CO)[C@@H](O)[C@H](O)[C@@H]1O[C@@H]1O[C@H](CO)[C@@H](O)[C@H](O)[C@H]1NC(C)=O)[C@@H](C)CC)[C@@H](C)O[C@H]1O[C@H](CO)[C@@H](O)[C@H](O)[C@@H]1O[C@@H]1O[C@H](CO)[C@@H](O)[C@H](O)[C@H]1NC(C)=O)[C@@H](C)O)[C@@H](C)CC` ({Hexanoyl(5-oxo)}-TRGAIIQTPT(GlcNAc(β1-2)αMan)LGPIQPT(GlcNAc(β1-2)αMan)RV-NH2), the outcome (in the test on Datura stramonium; in [3]; in the test listed under Homo sapiens [5]; in the test with Maackia amurensis) was inactive. Also, the result (in the test filed under Homo sapiens [1]; in test [2]; in test [4]; in the test on Canavalia ensiformis; with Arachis hypogaea; in the test with Erythrina crista-galli) was Active. Besides, the result (in [6]; in test [7]; in the test with Triticum aestivum; in test [8]) was Active.

With `CC[C@H](C)[C@H](NC(=O)[C@H](C)NC(=O)CNC(=O)[C@H](CCCNC(=N)N)NC(=O)[C@@H](NC(=O)CCCC(C)=O)[C@@H](C)O)C(=O)N[C@H](C(=O)N[C@@H](CCC(N)=O)C(=O)N[C@H](C(=O)N1CCC[C@H]1C(=O)N[C@H](C(=O)N[C@@H](CC(C)C)C(=O)NCC(=O)N1CCC[C@H]1C(=O)N[C@H](C(=O)N[C@@H](CCC(N)=O)C(=O)N1CCC[C@H]1C(=O)N[C@H](C(=O)N[C@@H](CCCNC(=N)N)C(=O)N[C@H](C(N)=O)C(C)C)[C@@H](C)O)[C@@H](C)CC)[C@@H](C)O[C@H]1O[C@H](CO)[C@@H](O)[C@H](O)[C@@H]1O[C@@H]1O[C@H](CO)[C@@H](O)[C@H](O)[C@H]1NC(C)=O)[C@@H](C)O)[C@@H](C)CC` ({Hexanoyl(5-oxo)}-TRGAIIQTPT(GlcNAc(β1-2)αMan)LGPIQPTRV-NH2), the outcome (with Datura stramonium; in test [3]; in the test listed under Homo sapiens [5]; in the test with Maackia amurensis) was inactive. Further, the result (in the test listed under Homo sapiens [1]; in test [2]; in test [4]; in the test with Canavalia ensiformis; with Arachis hypogaea; in the test on Erythrina crista-galli) was Active. For the same compound, the result (in test [6]; in test [7]; in the test on Triticum aestivum; in test [8]) was Active.
